In paper PMC9190144, “Phytochemistry, anti-diabetic and antioxidant potentials of Allium consanguineum Kunth” (BMC Complementary Medicine and Therapies, 2022):
Several values for one entry are separate records, joined by “and”; a condition that tells them apart may be missing. Equal entries are not always repeated.

Key:
DPPH antioxidant assay = type: biochemical; settings: for DPPH Percent Scavenging / Percent Inhibition (mean ± SEM): semi-purified fractions/isolated compounds series
Experimental: For DPPH stock arrangement, […] dissolve in 100 ml of methanol and maintain at 20 °C for supplementary action. After this, 1000 micro litter was the standard absorbance set at 517 nm as utilized a control and afterward spread through aluminum foil for keeping in dark area for 1 day for the formation of radicals. […] The 2 ml solution of the examples were blended in with 2 ml of 2, 2-[…]-1-picryl-hydrazyl radical arrangement and saved for 15 m in obscurity zone. Following equation was utilized for the assurance of % DPPH restraint. %inhibition=A-B/A×100
A for absorbance of control and B are denoted for the absorbance of sample.
(§1) The IC50s were determined using the same approach in free radical assays such as DPPH, ABTS, and H2O2.

albino mice = experiment: Oral glucose tolerance test (OGTT); type: in vivo; settings: for OGTT 0 minutes / OGTT 30 minutes / OGTT 60 minutes / OGTT 120 minutes: oral; for OGTT 0 minutes: 0 minutes after glucose; for OGTT 30 minutes: 30 minutes after glucose; for OGTT 60 minutes: 60 minutes after glucose; for OGTT 120 minutes: 120 minutes after glucose
Experimental: In this experiment, the animals treated with control and treated groups were fasted overnight. To the albino mice, […] of glucose was administered against the standard glibenclamide. After the oral administration of glucose, the level of glucose in blood was checked at time intervals of 0, 30, 60 and 120 minutes for assessment of the effect of exogenously administered glucose-D on the treated albino mice. After the experiment, the OGTT was carried out for 5 days.

[1] = system: alloxan-induced diabetic albino mice; experiment: In-vivo anti-diabetic study in alloxan-induced diabetic mice; settings: for Decrease in Blood Glucose: 0 day to 15th day
Experimental: The diabetes was induced in mice by giving alloxan i.p. as per the standard protocols. A single dose of alloxan (150 mg/kg) was given to mice and were kept on fasting for next 16 hours to induce diabetes. […] The animals with random blood glucose level of more than 200 mg/dl were selected for further studies. The animals with elevated blood glucose levels were divided into six groups having five albino mice in each group. Group I was given normal saline and was negative control. Group II was given Tween 80. Group III was the positive control and was given glibenclamide. The remaining groups were given different doses of the compounds. […]

α-amylase = experiment: In-vitro α-amylase inhibition assay; type: biochemical; settings: for Alpha amylase Percent Inhibition (mean ± SEM): semi-purified fractions/isolated compounds series; for Percent Inhibition (mean ± SEM): crude extract/solvent fractions series
Experimental: The Bernfeld’s procedure was used to investigate in-vitro amylase inhibition. […] Ten minutes after incubation period, […] of 1% starch solution were applied to initiate the reaction and then incubated for 30 minutes at 37 °C. Then 20 μl of 1 M HCl and 75 μl of iodine solution were added to the 96 well plate, the absorbance of the solution was measured at 580 nm and inhibitory response of the -amylase enzyme was calculated using the following formula. Inhibition%=100control-test/control
as §1

[2] = H2O2 free radicals scavenging assay; type: biochemical
Experimental: The hydrogen peroxide antioxidant activity of test samples was evaluated by using protocol described. […] It was […] 0.6 mL hydrogen peroxide solution was applied to it. The absorbance of each plant sample was measured at 230 nm against the blank after 10 minutes. […] Hydrogenperoxidescavengingactivity=1-[…]×100 […]

[3] = ABTS free radicals scavenging assay; type: biochemical
Experimental: The ABTS analysis of plant’s samples was performed by standard systems. […] After amassing of the two solutions, they were saved in a hatchery at 30 °C for 15 m. The absorbance of the subsequent solution was estimated at 745 nm with photo-spectrometer again. Various weakening of ascorbic corrosive was then set up as certain controls as per a similar technique. The ABTS free extreme screening was examined by the accompanying recipe. Formula: %scavengingactivity=A-B/AX100 A used for the control while B represents sample absorbance.

α-glucosidase = α-glucosidase (Saccharomyces cerevisiae, UniProt P53341); type: biochemical
Experimental: For the example planning initial 1200 μL of phosphate buffer put in test tube and included 100 μl of each concentrate which sequential weakened going from 9, 7, and 5 mg/ml. 200 μl of glycosidase (0.5 mg/11 ml refined H2O) was added to the test tube in addition to 0.2 ml of substrate arrangement (glucopyranoside 15 mg/10 ml refined water) was kept at 37 °C for 20 minutes.
For control, 1.2 ml of PO4 (phosphate buffer) was added to the test tube and furthermore included 200 μl catalyst arrangement and 200 μl of substrate arrangement (C7H14O6 (glucopyranoside) 15 mg/10 ml refined water) just as included 800 μl of Na2CO3 arrangement and was maintained for 20 minutes at 37 °C [32]. The retention of control and test was examined at 4.05e-7 m using the accompanying equation after the recommended time: %Inhibition=absorbanceofControl-absorbanceofSample/absorbanceofControl×100
as §1

[4] = dose 31.25 μg/kg, diabetic mice
[5] = dose 0.5 (μg/kg), diabetic mice

Sequence of α-glucosidase (P53341 whole entry): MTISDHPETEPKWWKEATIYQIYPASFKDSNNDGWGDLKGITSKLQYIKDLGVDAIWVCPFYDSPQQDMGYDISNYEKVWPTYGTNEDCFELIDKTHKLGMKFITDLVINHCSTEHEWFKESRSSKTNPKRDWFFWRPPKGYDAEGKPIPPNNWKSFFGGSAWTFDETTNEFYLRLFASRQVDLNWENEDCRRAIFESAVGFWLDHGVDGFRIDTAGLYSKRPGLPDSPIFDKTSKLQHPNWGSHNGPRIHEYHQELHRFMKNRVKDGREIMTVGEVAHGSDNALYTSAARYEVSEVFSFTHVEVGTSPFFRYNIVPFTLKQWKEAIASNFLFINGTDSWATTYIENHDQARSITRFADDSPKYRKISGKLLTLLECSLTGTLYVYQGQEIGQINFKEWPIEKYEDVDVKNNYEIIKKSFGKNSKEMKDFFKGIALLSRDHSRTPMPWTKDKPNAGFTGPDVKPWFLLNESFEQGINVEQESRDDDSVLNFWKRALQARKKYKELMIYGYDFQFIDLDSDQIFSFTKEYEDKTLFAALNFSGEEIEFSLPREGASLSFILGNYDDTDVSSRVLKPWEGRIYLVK

Row | Structure (SMILES) | DPPH Percent Scavenging / Percent Inhibition (mean ± SEM) (DPPH antioxidant assay; 250 μg/ml) [%] | DPPH Percent Scavenging / Percent Inhibition (mean ± SEM) (DPPH antioxidant assay; 500 μg/ml) [%] | DPPH Percent Scavenging / Percent Inhibition (mean ± SEM) (DPPH antioxidant assay; 1000 μg/ml) [%] | OGTT 0 minutes (albino mice) [mg/dL] | OGTT 30 minutes (albino mice) [mg/dL] | OGTT 60 minutes (albino mice) [mg/dL] | OGTT 120 minutes (albino mice) [mg/dL] | Decrease in Blood Glucose ([1]; dose 31.25 μg/kg) [mg/dL] | Blood Glucose Level 0 day [1, 4] [mg/dL] | Blood Glucose Level 4th day [1, 4] [mg/dL] | Blood Glucose Level 7th day [1, 4] [mg/dL] | Blood Glucose Level 10th day [1, 4] [mg/dL] | Blood Glucose Level 15th day [1, 4] [mg/dL] | Decrease in Blood Glucose ([1]; dose 250 μg/kg) [mg/dL] | Blood Glucose Level 0 day ([1]; dose 250 μg/kg, diabetic mice) [mg/dL] | Blood Glucose Level 4th day ([1]; dose 250 μg/kg, diabetic mice) [mg/dL] | Blood Glucose Level 7th day ([1]; dose 250 μg/kg, diabetic mice) [mg/dL] | Alpha amylase Percent Inhibition (mean ± SEM) (α-amylase; 250 μg/ml) | Alpha amylase Percent Inhibition (mean ± SEM) (α-amylase; 500 μg/ml) | Alpha amylase Percent Inhibition (mean ± SEM) (α-amylase; 1000 μg/ml) | further results
1 | C=CCc1cc2c(c(OC)c1OC)OCO2 [Comp 2, 6-allyl-4,5-dimethoxybenzo[d][1,3]dioxole] | 78.36 ± 0.84 | 82.35 ± 0.23 | 87.62 ± 0.58 | 163.5 | 189.4 | 214.6 | 151.6 | 33 | 451 | 447 | 430 | 424 | 418 | 112 | 467 | 462 | 444 | 68.33 ± 0.49 % | 74.33 ± 1.20 % | 81.61 ± 1.70 % | Change in body weight [1, 4]: −6.6 gm; Blood Glucose Level 10th day ([1]; dose 250 μg/kg, diabetic mice): 408 mg/dL; Blood Glucose Level 15th day ([1]; dose 250 μg/kg, diabetic mice): 355 mg/dL; Decrease in Blood Glucose ([1]; dose 500 μg/kg): 201 mg/dL; Blood Glucose Level 0 day ([1]; dose 500 μg/kg, diabetic mice): 457 mg/dL; Blood Glucose Level 4th day ([1]; dose 500 μg/kg, diabetic mice): 403 mg/dL; Blood Glucose Level 7th day ([1]; dose 500 μg/kg, diabetic mice): 362 mg/dL; Blood Glucose Level 10th day ([1]; dose 500 μg/kg, diabetic mice): 304 mg/dL; Blood Glucose Level 15th day ([1]; dose 500 μg/kg, diabetic mice): 256 mg/dL
2 | COc1cc(/C=C/CO)ccc1O [Comp 1, (E)-4-(3-hydroxyprop-1-en-1-yl)-2-methoxyphenol] | 80.48 ± 0.25 | 85.43 ± 1.39 | 89.24 ± 0.79 | 165.6 | 194.6 | 211.4 | 160.1 | 36 | 415 | 407 | 398 | 381 | 379 | 205 | 420 | 394 | 345 | 74.90 ± 0.60^ns % | 79.45 ± 0.90^ns % | 85.23 ± 0.22^ns % | blood glucose (albino mice; after 120 minutes): 160 mg/dL; Blood Glucose Level 10th day ([1]; dose 250 μg/kg, diabetic mice): 217 mg/dL; Blood Glucose Level 15th day ([1]; dose 250 μg/kg, diabetic mice): 215 mg/dL; Decrease in Blood Glucose ([1]; dose 500 μg/kg): 119 mg/dL; Blood Glucose Level 0 day ([1]; dose 500 μg/kg, diabetic mice): 411 mg/dL; Blood Glucose Level 4th day ([1]; dose 500 μg/kg, diabetic mice): 387 mg/dL; Blood Glucose Level 7th day ([1]; dose 500 μg/kg, diabetic mice): 371 mg/dL; Blood Glucose Level 10th day ([1]; dose 500 μg/kg, diabetic mice): 311 mg/dL; Blood Glucose Level 15th day ([1]; dose 500 μg/kg, diabetic mice): 292 mg/dL
3 | O=C1O[C@H]([C@@H](O)CO)C(O)=C1O [Ascorbic acid] | 83.33 ± 0.88 | 87.84 ± 0.26 | 92.55 ± 0.35 |  |  |  |  |  |  |  |  |  |  |  |  |  |  |  |  |  | H2O2 assay IC50 [2]: 12.63 µg/mL; H2O2 assay Percent Inhibition (mean ± SEM) ([2]; 250 μg/ml): 71.56 ± 0.49%; H2O2 assay Percent Inhibition (mean ± SEM) ([2]; 500 μg/ml): 74.03 ± 0.64%; H2O2 assay Percent Inhibition (mean ± SEM) ([2]; 1000 μg/ml): 82.43 ± 0.52%; DPPH assay Percent Inhibition (mean ± SEM) (DPPH antioxidant assay; 250 μg/ml, crude extract/solvent fractions series): 81.33 ± 0.88%; DPPH assay Percent Inhibition (mean ± SEM) (DPPH antioxidant assay; 500 μg/ml, crude extract/solvent fractions series): 87.84 ± 0.26%; DPPH assay Percent Inhibition (mean ± SEM) (DPPH antioxidant assay; 1000 μg/ml, crude extract/solvent fractions series): 92.55 ± 0.35%; DPPH assay IC50 (DPPH antioxidant assay; crude extract/solvent fractions series): < 0.1 µg/mL; ABTS assay IC50 [3]: < 0.1 µg/mL; ABTS assay Percent Inhibition (mean ± SEM) ([3]; 250 μg/ml): 81.00 ± 1.06%; ABTS assay Percent Inhibition (mean ± SEM) ([3]; 500 μg/ml): 86.66 ± 0.66%; ABTS assay Percent Inhibition (mean ± SEM) ([3]; 1000 μg/ml): 87.83 ± 0.29%
4 | C[C@H]1O[C@H](O[C@H]2[C@H](O)[C@@H](O)[C@@H](O[C@H]3[C@H](O)[C@@H](O)C(O)O[C@@H]3CO)O[C@@H]2CO)[C@H](O)[C@@H](O)[C@@H]1N[C@H]1C=C(CO)[C@@H](O)[C@H](O)[C@H]1O (stereo partly shown) [Acarbose] |  |  |  |  |  |  |  |  |  |  |  |  |  |  |  |  |  | 77.08 ± 1.04% | 82.28 ± 1.94% | 87.49 ± 0.60% | Alpha glucosidase Percent Inhibition (mean ± SEM) (α-glucosidase): 89.50 ± 1.00% and 83.00 ± 0.00% and 77.50 ± 0.57% and 73.53 ± 0.55% and 67.63 ± 0.33%; Percent Inhibition (mean ± SEM) (α-glucosidase): 75.50 ± 1.00% and 70.00 ± 0.00% and 64.50 ± 0.57% and 56.53 ± 0.55% and 51.63 ± 0.33%; Percent Inhibition (mean ± SEM) (α-amylase; 250 μg/ml): 70.08 ± 1.04%; Percent Inhibition (mean ± SEM) (α-amylase; 500 μg/ml): 76.28 ± 1.94%; Percent Inhibition (mean ± SEM) (α-amylase; 1000 μg/ml): 87.49 ± 0.60%
5 | COc1ccc(Cl)cc1C(=O)NCCc1ccc(S(=O)(=O)NC(=O)NC2CCCCC2)cc1 [Glibenclamide, reference compound] |  |  |  | 151.3 | 176.5 | 214.1 | 140.7 |  |  |  |  |  |  |  |  |  |  |  |  |  | Decrease in Blood Glucose ([1]; dose 0.5 (μg/kg)): 274 mg/dL; Blood Glucose Level 0 day [1, 5]: 472 mg/dL; Blood Glucose Level 4th day [1, 5]: 302 mg/dL; Blood Glucose Level 7th day [1, 5]: 256 mg/dL; Blood Glucose Level 10th day [1, 5]: 211 mg/dL; Blood Glucose Level 15th day [1, 5]: 198 mg/dL
